Assay results: article PMC5218480 (PLoS ONE, 2017)

Tested on: MV-4-11 cells
Test: Gene expression microarray analysis (Affymetrix PrimeView) and GSEA
Format: cell-based, human
Set-up: RFU PODN (11730768_x_at) / Fold change /veh PODN (11730768_x_at) / RFU LINC00158 (11744669_a_at) / Fold change /veh LINC00158 (11744669_a_at) / RFU DUSP10 (11751237_a_at) / Fold change /veh DUSP10 (11751237_a_at) / RFU ID3 (11757404_x_at) / Fold change /veh ID3 (11757404_x_at) / RFU PLEKHG5 (11737974_s_at) / Fold change /veh PLEKHG5 (11737974_s_at) / RFU LRRC4B (11730491_at) / Fold change /veh LRRC4B (11730491_at) / RFU GIMAP4 (11747438_a_at) / Fold change /veh GIMAP4 (11747438_a_at) / RFU KRT8 (11758183_x_at) / Fold change /veh KRT8 (11758183_x_at) / RFU CNN1 (11734310_a_at) / Fold change /veh CNN1 (11734310_a_at) / RFU VPS37D (11726825_at) / Fold change /veh VPS37D (11726825_at) / RFU C10orf10 (11716522_x_at) / Fold change /veh C10orf10 (11716522_x_at) / RFU KIR2DL2 /// KIR2DL4 /// KIR2DL5A /// KIR2DL5B /// KIR2DS1 /// KIR2DS2 /// KIR2DS3 /// KIR2DS4 /// KIR3DL3 /// KIR3DL3 /// KIR3DS1 (11738374_at) / Fold change /veh KIR2DL2 /// KIR2DL4 /// KIR2DL5A /// KIR2DL5B /// KIR2DS1 /// KIR2DS2 /// KIR2DS3 /// KIR2DS4 /// KIR3DL3 /// KIR3DL3 /// KIR3DS1 (11738374_at) / RFU C1QL1 (11718748_at) / Fold change /veh C1QL1 (11718748_at) / RFU TMPRSS4 (11747572_a_at) / Fold change /veh TMPRSS4 (11747572_a_at) / RFU HAMP (11756126_x_at) / Fold change /veh HAMP (11756126_x_at) / RFU RNFT2 (11725882_a_at) / Fold change /veh RNFT2 (11725882_a_at) / RFU NR4A2 (11747474_a_at) / Fold change /veh NR4A2 (11747474_a_at) / RFU ABCC12 (11746883_a_at) / Fold change /veh ABCC12 (11746883_a_at) / RFU TMEM136 (11760407_x_at) / Fold change /veh TMEM136 (11760407_x_at) / RFU CLDN22 /// WWC2 (11732394_at) / Fold change /veh CLDN22 /// WWC2 (11732394_at) / RFU HLA-DPB1 (11760878_x_at) / Fold change /veh HLA-DPB1 (11760878_x_at) / RFU SPINT1 (11716480_a_at) / Fold change /veh SPINT1 (11716480_a_at) / RFU GAP43 (11754022_s_at) / Fold change /veh GAP43 (11754022_s_at) / RFU A4GNT (11735810_at) / Fold change /veh A4GNT (11735810_at) / RFU PRB3 (11715151_x_at) / Fold change /veh PRB3 (11715151_x_at) / RFU TUBB4B (11761932_at) / Fold change /veh TUBB4B (11761932_at) / RFU CAPN14 (11732068_a_at) / Fold change /veh CAPN14 (11732068_a_at) / RFU TMCC2 (11721928_a_at) / Fold change /veh TMCC2 (11721928_a_at) / RFU IRGQ (11745062_a_at) / Fold change /veh IRGQ (11745062_a_at) / RFU FAM174B (11720279_a_at) / Fold change /veh FAM174B (11720279_a_at) / RFU TMPRSS4 (11748680_a_at) / Fold change /veh TMPRSS4 (11748680_a_at) / RFU FAM212B (11763350_a_at) / Fold change /veh FAM212B (11763350_a_at) / RFU PLEKHG5 (11743358_a_at) / Fold change /veh PLEKHG5 (11743358_a_at) / RFU ZSCAN30 (11745921_a_at) / Fold change /veh ZSCAN30 (11745921_a_at) / RFU CMKLR1 (11741424_a_at) / Fold change /veh CMKLR1 (11741424_a_at) / RFU LOC101060620 /// MAPK8IP1 (11723275_at) / Fold change /veh LOC101060620 /// MAPK8IP1 (11723275_at) / RFU SPTSSB (11747773_x_at) / Fold change /veh SPTSSB (11747773_x_at) / RFU PRSS12 (11739890_at) / Fold change /veh PRSS12 (11739890_at) / RFU BIN1 (11741810_x_at) / Fold change /veh BIN1 (11741810_x_at) / RFU WNT11 (11732464_a_at) / Fold change /veh WNT11 (11732464_a_at) / RFU C10orf10 (11716521_a_at) / Fold change /veh C10orf10 (11716521_a_at) / RFU C5orf56 (11738089_at) / Fold change /veh C5orf56 (11738089_at) / RFU CYB561 (11721691_x_at) / Fold change /veh CYB561 (11721691_x_at) / RFU ANKRD19P (11752326_a_at) / Fold change /veh ANKRD19P (11752326_a_at) / RFU OR2T12 /// OR2T33 /// OR2T8 (11738714_s_at) / Fold change /veh OR2T12 /// OR2T33 /// OR2T8 (11738714_s_at) / RFU VCAN (11748164_a_at) / Fold change /veh VCAN (11748164_a_at) / RFU JSRP1 (11732532_at) / Fold change /veh JSRP1 (11732532_at) / RFU KRTAP10-11 (11738290_x_at) / Fold change /veh KRTAP10-11 (11738290_x_at) / RFU MYO3A (11730013_a_at) / Fold change /veh MYO3A (11730013_a_at) / RFU EBF3 (11725865_a_at) / Fold change /veh EBF3 (11725865_a_at) / RFU CAMK2N1 (11719241_x_at) / Fold change /veh CAMK2N1 (11719241_x_at) / RFU C5orf56 (11738088_a_at) / Fold change /veh C5orf56 (11738088_a_at) / RFU OLFML3 (11715873_a_at) / Fold change /veh OLFML3 (11715873_a_at) / RFU LOC100653217 /// NTM (11731650_a_at) / Fold change /veh LOC100653217 /// NTM (11731650_a_at) / RFU MAPK11 (11762145_a_at) / Fold change /veh MAPK11 (11762145_a_at) / RFU FIZ1 (11724087_x_at) / Fold change /veh FIZ1 (11724087_x_at) / RFU OASL (11726364_x_at) / Fold change /veh OASL (11726364_x_at) / RFU SOX15 (11748057_x_at) / Fold change /veh SOX15 (11748057_x_at) / RFU CD79A (11719716_a_at) / Fold change /veh CD79A (11719716_a_at) / RFU HIST1H1D (11736915_at) / Fold change /veh HIST1H1D (11736915_at) / RFU CASKIN2 (11723855_a_at) / Fold change /veh CASKIN2 (11723855_a_at) / RFU LOC730098 (11760151_x_at) / Fold change /veh LOC730098 (11760151_x_at) / RFU OR4N2 (11742367_at) / Fold change /veh OR4N2 (11742367_at) / RFU PRRT2 (11749266_a_at) / Fold change /veh PRRT2 (11749266_a_at) / RFU SNX32 (11753110_a_at) / Fold change /veh SNX32 (11753110_a_at) / RFU CDHR5 (11726645_a_at) / Fold change /veh CDHR5 (11726645_a_at) / RFU RCAN1 (11760418_a_at) / Fold change /veh RCAN1 (11760418_a_at) / RFU FAM167A (11723789_a_at) / Fold change /veh FAM167A (11723789_a_at) / RFU FAM26E (11764081_at) / Fold change /veh FAM26E (11764081_at) / RFU ISYNA1 (11749810_s_at) / Fold change /veh ISYNA1 (11749810_s_at) / RFU ACY1 (11761880_at) / Fold change /veh ACY1 (11761880_at) / RFU 11764098_at / Fold change /veh 11764098_at / RFU SAMD14 (11745864_x_at) / Fold change /veh SAMD14 (11745864_x_at) / RFU NPB (11741838_a_at) / Fold change /veh NPB (11741838_a_at) / RFU TMPRSS6 (11731388_a_at) / Fold change /veh TMPRSS6 (11731388_a_at) / RFU KRTAP10-2 (11738614_at) / Fold change /veh KRTAP10-2 (11738614_at) / RFU ARHGAP8 /// PRR5-ARHGAP8 (11727945_x_at) / Fold change /veh ARHGAP8 /// PRR5-ARHGAP8 (11727945_x_at) / RFU KRTAP5-7 /// NADSYN1 (11734609_at) / Fold change /veh KRTAP5-7 /// NADSYN1 (11734609_at) / RFU RASL12 (11751679_a_at) / Fold change /veh RASL12 (11751679_a_at) / RFU CDKN2B (11736163_a_at) / Fold change /veh CDKN2B (11736163_a_at) / RFU PRF1 (11729649_at) / Fold change /veh PRF1 (11729649_at) / RFU, ZNF638 /// ZNF638-IT1 / Fold change vs veh, ZNF638 /// ZNF638-IT1 / RFU, PANK3 / Fold change vs veh, PANK3 / RFU, SH3YL1 / Fold change vs veh, SH3YL1 / RFU, ZEB2 / Fold change vs veh, ZEB2 / RFU, NRIP1 / Fold change vs veh, NRIP1 / RFU, PTTG1IP / Fold change vs veh, PTTG1IP / RFU, CAPN2 / Fold change vs veh, CAPN2 / RFU, MED14 / Fold change vs veh, MED14 / RFU, SNORA58 / Fold change vs veh, SNORA58 / RFU, C1orf63 / Fold change vs veh, C1orf63 / RFU, LRRFIP1 / Fold change vs veh, LRRFIP1 / RFU, NDUFAF7 / Fold change vs veh, NDUFAF7 / RFU, SLC12A2 / Fold change vs veh, SLC12A2 / RFU, IBTK / Fold change vs veh, IBTK / RFU, ESF1 / Fold change vs veh, ESF1 / Fold change vs veh, TMEM50B / RFU, TAOK1 / Fold change vs veh, TAOK1 / RFU, ACBD3 / Fold change vs veh, ACBD3 / RFU, TMA16 / Fold change vs veh, TMA16 / RFU, RWDD3 / Fold change vs veh, RWDD3 / RFU, BCAT1 / Fold change vs veh, BCAT1 / RFU, EDEM3 / Fold change vs veh, EDEM3 / RFU, TMEM33 / Fold change vs veh, TMEM33 / RFU, WDR75 / Fold change vs veh, WDR75 / RFU, AHCTF1 / Fold change vs veh, AHCTF1 / RFU, TFRC / Fold change vs veh, TFRC / RFU, ZDHHC17 / Fold change vs veh, ZDHHC17 / RFU, NOM1 / Fold change vs veh, NOM1 / RFU, ARL8B / Fold change vs veh, ARL8B / RFU, ZBTB11 / Fold change vs veh, ZBTB11 / RFU, TAMM41 / Fold change vs veh, TAMM41 / RFU, KIAA1704 /// LOC100996395 / Fold change vs veh, KIAA1704 /// LOC100996395 / RFU, ING1 / Fold change vs veh, ING1 / RFU, TRMT61B / Fold change vs veh, TRMT61B / RFU, FUBP3 / Fold change vs veh, FUBP3 / RFU, TP53 / Fold change vs veh, TP53 / RFU, TNKS2 / Fold change vs veh, TNKS2 / RFU, ZFP14 / Fold change vs veh, ZFP14 / RFU, ACTR2 / Fold change vs veh, ACTR2 / RFU, PPP3R1 / Fold change vs veh, PPP3R1 / RFU, PIK3R1 / Fold change vs veh, PIK3R1 / RFU, HNRNPA1 / Fold change vs veh, HNRNPA1 / RFU, RNF170 / Fold change vs veh, RNF170 / RFU, ZNF28 / Fold change vs veh, ZNF28 / RFU, RNGTT / Fold change vs veh, RNGTT / RFU, OGT / Fold change vs veh, OGT / RFU, BRD1 / Fold change vs veh, BRD1 / RFU, MARS / Fold change vs veh, MARS / RFU, ZNF655 / Fold change vs veh, ZNF655 / RFU, FAHD1 / Fold change vs veh, FAHD1 / RFU, BDP1 / Fold change vs veh, BDP1 / RFU, LRRCC1 / Fold change vs veh, LRRCC1 / RFU, ARID1A / Fold change vs veh, ARID1A / RFU, ZNF146 / Fold change vs veh, ZNF146 / RFU, ZNF330 / Fold change vs veh, ZNF330 / RFU, GPN3 / Fold change vs veh, GPN3 / RFU, C9orf123 / Fold change vs veh, C9orf123 / RFU, N4BP2L2 / Fold change vs veh, N4BP2L2 / RFU, ARFIP1 / Fold change vs veh, ARFIP1 / RFU, FAM179B / Fold change vs veh, FAM179B / RFU, BCL10 / Fold change vs veh, BCL10 / RFU, UHRF1BP1L / Fold change vs veh, UHRF1BP1L / RFU, BET1 / Fold change vs veh, BET1 / RFU, CNOT2 / Fold change vs veh, CNOT2 / RFU, ZNF268 / Fold change vs veh, ZNF268 / Fold change vs veh, ZNF507 / RFU, DGCR2 / Fold change vs veh, DGCR2 / RFU, WDSUB1 / Fold change vs veh, WDSUB1 / Fold change vs veh, HSP90B1 /// MIR3652 / RFU, ADSS / Fold change vs veh, ADSS / RFU, GK / Fold change vs veh, GK / RFU, ZNF148 / Fold change vs veh, ZNF148 / RFU, TAF9 / Fold change vs veh, TAF9 / RFU, SLC1A5 / Fold change vs veh, SLC1A5 / RFU, SLMO2 / Fold change vs veh, SLMO2 / RFU, ABCC4 / Fold change vs veh, ABCC4 / RFU, LOC101060439 /// RAP1B / Fold change vs veh, LOC101060439 /// RAP1B / RFU, RFX7 / Fold change vs veh, RFX7 / RFU, GTPBP10 / Fold change vs veh, GTPBP10 / RFU, CNEP1R1 / Fold change vs veh, CNEP1R1 / RFU, BIVM-ERCC5 /// ERCC5 / Fold change vs veh, BIVM-ERCC5 /// ERCC5 / RFU, ILF3 / Fold change vs veh, ILF3 / RFU 11762660_at / Fold change /veh 11762660_at / RFU VCAN (11757783_s_at) / Fold change /veh VCAN (11757783_s_at) / RFU DDX43 (11728927_at) / Fold change /veh DDX43 (11728927_at) / RFU KRT8 (11758188_x_at) / Fold change /veh KRT8 (11758188_x_at) / RFU NKD1 (11759106_at) / Fold change /veh NKD1 (11759106_at) / RFU SRD5A1 (11742802_a_at) / Fold change /veh SRD5A1 (11742802_a_at) / RFU TPSAB1 /// TPSB2 (11721975_s_at) / Fold change /veh TPSAB1 /// TPSB2 (11721975_s_at) / RFU GSTM3 (11746129_a_at) / Fold change /veh GSTM3 (11746129_a_at) / RFU IL23R (11737362_x_at) / Fold change /veh IL23R (11737362_x_at) / RFU TMEM51 (11727254_a_at) / Fold change /veh TMEM51 (11727254_a_at) / RFU PIWIL2 (11732686_x_at) / Fold change /veh PIWIL2 (11732686_x_at) / RFU ORM1 (11744905_x_at) / Fold change /veh ORM1 (11744905_x_at) / RFU CCDC152 (11743942_at) / Fold change /veh CCDC152 (11743942_at) / RFU ECM1 (11717891_a_at) / Fold change /veh ECM1 (11717891_a_at) / RFU IL23R (11748794_a_at) / Fold change /veh IL23R (11748794_a_at) / RFU TNFAIP8L3 (11732012_x_at) / Fold change /veh TNFAIP8L3 (11732012_x_at) / RFU MBOAT4 (11741988_at) / Fold change /veh MBOAT4 (11741988_at) / RFU 11764193_at / Fold change /veh 11764193_at / RFU TMEM53 (11763286_at) / Fold change /veh TMEM53 (11763286_at) / RFU MAGEB2 (11727129_at) / Fold change /veh MAGEB2 (11727129_at) / RFU TMEM200A (11744735_a_at) / Fold change /veh TMEM200A (11744735_a_at) / RFU CCDC152 (11751479_a_at) / Fold change /veh CCDC152 (11751479_a_at) / RFU FAM211A (11726209_a_at) / Fold change /veh FAM211A (11726209_a_at) / RFU RGS16 (11746705_a_at) / Fold change /veh RGS16 (11746705_a_at) / RFU VCAN (11755009_s_at) / Fold change /veh VCAN (11755009_s_at) / RFU RHOB (11743442_s_at) / Fold change /veh RHOB (11743442_s_at) / RFU RGS16 (11720943_a_at) / Fold change /veh RGS16 (11720943_a_at) / RFU RGS16 (11720944_at) / Fold change /veh RGS16 (11720944_at) / RFU, VPS4B / Fold change vs veh, VPS4B / RFU, CREB1 / Fold change vs veh, CREB1 / RFU, DNAJC13 / Fold change vs veh, DNAJC13 / RFU, GNAQ / Fold change vs veh, GNAQ / RFU, CDK5R1 / Fold change vs veh, CDK5R1 / RFU, ZRANB3 / Fold change vs veh, ZRANB3 / RFU, CUL4A / Fold change vs veh, CUL4A / RFU, CCNY / Fold change vs veh, CCNY / RFU, UFL1 / Fold change vs veh, UFL1 / RFU, COG3 / Fold change vs veh, COG3 / RFU, DIAPH2 / Fold change vs veh, DIAPH2 / RFU, SKA2 / Fold change vs veh, SKA2 / RFU, AFF3 / Fold change vs veh, AFF3 / RFU, LMF1 / Fold change vs veh, LMF1 / RFU, IPO11 / Fold change vs veh, IPO11 / RFU, DFFB / Fold change vs veh, DFFB / RFU, FOXP1 / Fold change vs veh, FOXP1 / RFU, CARD8 / Fold change vs veh, CARD8 / RFU, STRN3 / Fold change vs veh, STRN3 / RFU, ADK / Fold change vs veh, ADK / RFU, RASSF2 / Fold change vs veh, RASSF2 / RFU, WIPF1 / Fold change vs veh, WIPF1 / RFU, LARP1B / Fold change vs veh, LARP1B / RFU, RASA1 / Fold change vs veh, RASA1 / RFU, RB1 / Fold change vs veh, RB1 / RFU, PPFIA1 / Fold change vs veh, PPFIA1 / RFU, MAT2A / Fold change vs veh, MAT2A / RFU, CCT5 / Fold change vs veh, CCT5 / RFU, WDR92 / Fold change vs veh, WDR92 / RFU, CUX1 / Fold change vs veh, CUX1 / RFU, TTC7A / Fold change vs veh, TTC7A / RFU, TMEM135 / Fold change vs veh, TMEM135 / RFU, DEPTOR / Fold change vs veh, DEPTOR / RFU, CPM / Fold change vs veh, CPM / RFU, DNAJB6 / Fold change vs veh, DNAJB6 / RFU, CACNA2D3 / Fold change vs veh, CACNA2D3 / RFU, DTX4 / Fold change vs veh, DTX4 / RFU, TFCP2 / Fold change vs veh, TFCP2 / RFU, GMCL1 /// GMCL1P1 / Fold change vs veh, GMCL1 /// GMCL1P1 / RFU, AEBP2 / Fold change vs veh, AEBP2 / RFU, SNHG1 /// SNORD22 /// SNORD25 /// SNORD26 /// SNORD27 /// SNORD28 /// SNORD29 /// SNORD31 / Fold change vs veh, SNHG1 /// SNORD22 /// SNORD25 /// SNORD26 /// SNORD27 /// SNORD28 /// SNORD29 /// SNORD31 / Fold change (Aza/veh), C12orf56 (ProbeSet 11735607_a_at) / Fold change (ACY-1035/veh), C12orf56 (ProbeSet 11735607_a_at) / Fold change (Aza/veh), FGFR1OP (ProbeSet 11751329_s_at) / Fold change (ACY-1035/veh), FGFR1OP (ProbeSet 11751329_s_at) / Fold change (Aza/veh), VPS36 (ProbeSet 11739960_a_at) / Fold change (ACY-1035/veh), VPS36 (ProbeSet 11739960_a_at) / RFU SYPL1 (11715823_x_at) / Fold change /veh SYPL1 (11715823_x_at) / RFU IGFBP7 (11715501_s_at) / Fold change /veh IGFBP7 (11715501_s_at) / RFU REEP3 (11722064_at) / Fold change /veh REEP3 (11722064_at) / RFU IGLL1 (11728026_x_at) / Fold change /veh IGLL1 (11728026_x_at): dose or concentration left out as unconfirmed
Settings: MV-4-11 cells, 48 hours

Nc1ncn([C@@H]2O[C@H](CO)[C@@H](O)[C@H]2O)c(=O)n1 [azacitidine]
RFU RGS16 (11720943_a_at): 102.77 RFU
